Measurements from patent US20060281686A1, “Aza-peptides” (priority 2002, published 2006).
*1 amine or outer side, *2 acyl side, *3 side chain or, on linkers, in order; H or OH if unused. Where a SMILES comes first, the peptide text is derived from it. [ ]: non-standard residue; d: D form. azaPhe = O=C(N(Cc1ccccc1)N[*:1])[*:2]; azaPro = O=C(N1CCCN1[*:1])[*:2]

Legend:
[1] = In vitro peptide stability in human plasma; assay type: in vitro ADME; conditions: after 24 h incubation at 37° C. in fresh human plasma; HPLC peak area vs sample incubated in PBS; read-out: % of intact peptide in human plasma
Procedure: (§1) Peptides were prepared as a 1 μg/μl solution in water. 20 μl of the peptide solution was diluted in 80 μl of fresh human plasma or 10% rat brain homogenate (prepared in PBS). The resulting solution was incubated at 37° C. for different times and the reaction was stopped by adding a complete cocktail of protease inhibitors. The bulk of plasma and brain proteins (but none of the peptide) were precipitated in cold methanol (mix/MeOH, 4/5, v/v) during one hour at −20° C. The precipitated proteins were pelleted by centrifugation (10000 g, 10 min, 4° C.). The supernatant, containing the peptide, was concentrated 5 times under vacuum and separated by reverse-phase HPLC. The area of the peak corresponding to the intact peptide was measured and compared with an equivalent sample incubated in PBS. The results are listed in Table 1 as percentage of intact peptide after 24 h incubation at 37° C. in human plasma and in rat brain homogenate. The values compare favourably with those obtained for the reference compound of Example 8.

[2] = In vitro peptide stability in rat brain homogenate; assay type: in vitro ADME; conditions: after 24 h incubation at 37° C. in 10% rat brain homogenate; HPLC peak area vs sample incubated in PBS; read-out: % of intact peptide in rat brain homogenate
Procedure: as §1

Row | remaining at 24 h, 0.2 μg/μl [1] [%] | remaining at 24 h, 0.2 μg/μl [2] [%] | Compound
1 | 93 | 80 | CC(=O)N[C@@H](CC(C)C)C(=O)N1CCCN1C(=O)N[C@@H](Cc1ccccc1)C(=O)N[C@@H](Cc1ccccc1)C(=O)N[C@@H](CC(=O)O)C(N)=O [Example 6, Ac-L-P^a-F-F-D-NH2] (Ac-L[azaPro]FFD-NH2)
2 | 74 | 2 | Ac-LPFFD-NH2 [Example 8, reference compound]

Row | Compound | remaining at 24 h, 0.2 μg/μl [1] [%] | remaining at 24 h, 0.2 μg/μl [2] [%]
3 | CC(=O)N[C@@H](CC(C)C)C(=O)N1CCC[C@H]1C(=O)NN(Cc1ccccc1)C(=O)N[C@@H](Cc1ccccc1)C(=O)N[C@@H](CC(=O)O)C(N)=O [Example 5, Ac-L-P-F^a-F-D-NH2] (Ac-LP[azaPhe]FD-NH2) | 93 | 71
